Measurements reported in publication PMC8050608 (The Korean Journal of Physiology & Pharmacology : …, 2021).
Like-named read-outs stand apart in the source and are kept apart here.

Key:
ORAI1 [1] = molecular target: T1, ORAI1 (Homo sapiens, UniProt Q96D31); format: cell-based; conditions: HEK-293T, read-out: % inhibition at 100 μM
ORAI1 [2] = molecular target: T1, ORAI1; format: cell-based; conditions: HEK-293T, read-out: % inhibition at 100 μM; remark: listed apart in the source

T1 sequence (Q13586 23-685): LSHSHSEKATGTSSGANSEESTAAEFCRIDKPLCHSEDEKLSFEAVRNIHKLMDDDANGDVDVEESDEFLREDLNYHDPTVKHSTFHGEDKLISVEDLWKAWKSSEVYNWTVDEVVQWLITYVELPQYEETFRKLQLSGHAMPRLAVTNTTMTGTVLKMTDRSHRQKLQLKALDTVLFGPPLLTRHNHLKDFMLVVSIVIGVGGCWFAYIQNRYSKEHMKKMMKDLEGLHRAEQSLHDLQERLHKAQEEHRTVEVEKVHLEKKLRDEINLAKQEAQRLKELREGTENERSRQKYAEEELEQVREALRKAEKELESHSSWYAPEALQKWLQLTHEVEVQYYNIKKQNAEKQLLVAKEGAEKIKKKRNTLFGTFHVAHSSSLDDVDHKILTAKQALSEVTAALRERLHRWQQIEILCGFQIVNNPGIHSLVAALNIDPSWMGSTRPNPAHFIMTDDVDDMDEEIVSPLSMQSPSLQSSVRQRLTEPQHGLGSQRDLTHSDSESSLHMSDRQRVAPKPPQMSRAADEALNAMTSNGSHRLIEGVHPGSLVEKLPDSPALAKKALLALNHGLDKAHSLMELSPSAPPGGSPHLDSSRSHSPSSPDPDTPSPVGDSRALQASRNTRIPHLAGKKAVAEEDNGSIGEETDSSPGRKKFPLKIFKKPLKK
T1 sequence (Q96D31 whole entry): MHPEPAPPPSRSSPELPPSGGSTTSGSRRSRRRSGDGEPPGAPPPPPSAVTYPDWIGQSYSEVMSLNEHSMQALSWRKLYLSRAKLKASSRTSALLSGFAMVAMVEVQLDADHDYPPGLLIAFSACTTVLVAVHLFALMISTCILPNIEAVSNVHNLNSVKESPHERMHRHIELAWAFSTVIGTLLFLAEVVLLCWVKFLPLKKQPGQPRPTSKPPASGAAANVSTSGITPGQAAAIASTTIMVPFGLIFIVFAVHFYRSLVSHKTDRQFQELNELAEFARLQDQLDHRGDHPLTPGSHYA

SMILES | inhibition at 100 µM (ORAI1 [1]) [%] | inhibition at 100 µM (ORAI1 [2]) [%]
COc1ccc([C@H]2OC[C@H]3[C@@H]2CO[C@@H]3c2cc(OC)c(OC)c(OC)c2)cc1OC [magnolin] | 29.7 | 
COc1ccc([C@H]2OC[C@H]3[C@@H]2CO[C@@H]3c2ccc(OC)c(OC)c2)cc1OC [eudesmin] |  | 24.7
